Experimental data from US12252487B2, “Dominant salt forms of pyrimidine derivatives, and crystal forms thereof” (GUANGDONG RAYNOVENT BIOTECH CO., LTD., priority 2019, dated 2025).
Converted amounts (≈) assume the structure as drawn.

Key:
Assay type in all cases: physicochemical
[1] = Crystal form transition observed during experiment / post-treatment; conditions: e.g. drying under vacuum at ambient temperature
Description: The crystal form VII and the crystal form VIII can be obtained by similar method but by different post-treatment means.

[2] = Solubility of Compound 1 in 19 types of solvents at room temperature; conditions: for solubility: thermodynamic from solid
Description: Compound 1 was detected at room temperature for its solubility in 19 types of solvents. Specially, Compound 1 obtained in Example 1 was taken as sample for detecting its solubility in methanol, ethanol, water, acetonitrile, dioxane and other solvents.

[3] = Stability study of crystal forms, XRPD characterization on day 14
Procedure: An amount of sample to be tested was weighed and placed in a dish under conditions including high temperature (60° C.), high humidity (25° C., 92.5% RH), light radiation (25° C., 4500 Lux) and acceleration conditions (40° C., 75% RH), respectively, and sampled for XRPD characterization on day 14. Form I, Form II, Form III were taken for stability study under conditions including high temperature (60° C.), high humidity (25° C., 92.5% RH), light radiation (25° C., 4500 Lux), and acceleration conditions (40° C., 75% RH), and the results are shown in Table 2: […]

[4] = XRPD of crystal form after DVS test
Description: The crystal form IV is obtained by heating the crystal form III to lose some crystalline water.

In the case of `O=C(O)[C@H]1C2CCC(CC2)[C@@H]1Nc1nc(-c2n[nH]c3ncc(F)cc23)nc(C2CC2)c1F` [crystal form VII], the “Stability of the crystal form as concluded from crystal form transitions” value (shortened to “Stability of the crystal form”) [1] was “high stability”.

With `O=C(O)[C@H]1C2CCC(CC2)[C@@H]1Nc1nc(-c2n[nH]c3ncc(F)cc23)nc(C2CC2)c1F` [Compound 1] the “Solubility as a whole compared with WX-216” value ([2]; 19 solvents, room temperature) was “better than that of WX-216”, the solubility ([2]; organic solvent or mixture, solvent Acetone, 3000 μL, not dissolved completely at 50° C.) was less than 3300 µg/mL and the solubility ([2]; organic solvent or mixture, solvent Acetonitrile, 3000 μL, not dissolved completely at 50° C.) was less than 3300 µg/mL. For the same compound, the solubility ([2]; organic solvent or mixture, solvent Dichloromethane, 3000 μL, not dissolved completely at 50° C.) was less than 3300 µg/mL, the solubility ([2]; organic solvent or mixture, solvent Dimethylformamide, 200 μL) was greater than 50000 µg/mL and the solubility ([2]; organic solvent or mixture, solvent Dimethylsulfoxide, 200 μL) was greater than 50000 µg/mL. The solubility ([2]; organic solvent or mixture, solvent Dioxane, 3000 μL, not dissolved completely at 50° C.) was less than 3300 µg/mL, the solubility ([2]; organic solvent or mixture, solvent Ethanol, 3000 μL, not dissolved completely at 50° C.) was less than 3300 µg/mL and the solubility ([2]; organic solvent or mixture, solvent Ethyl acetate, 3000 μL, not dissolved completely at 50° C.) was less than 3300 µg/mL. For the same compound, the solubility ([2]; organic solvent or mixture, solvent Ethyl formate, 3000 μL, not dissolved completely at 50° C.) was less than 3300 µg/mL, the solubility ([2]; organic solvent or mixture, solvent Ethylene glycol dimethyl ether, 3000 μL, not dissolved completely at 50° C.) was less than 3300 µg/mL and the solubility ([2]; organic solvent or mixture, solvent Ethylene glycol monomethyl ether, 200 μL) was greater than 50000 µg/mL. For the same compound, the solubility ([2]; organic solvent or mixture, solvent Iso-propanol, 3000 μL, not dissolved completely at 50° C.) was less than 3300 µg/mL, the solubility ([2]; organic solvent or mixture, solvent Methanol, 500 μL) was 20000 to 50000 µg/mL (≈ 45.4 to 114 mM) and the solubility ([2]; organic solvent or mixture, solvent Methyl isobutyl ketone, 3000 μL, not dissolved completely at 50° C.) was less than 3300 µg/mL. For the same compound, the solubility ([2]; organic solvent or mixture, solvent Methyl tert-butyl ether, 3000 μL, not dissolved completely at 50° C.) was less than 3300 µg/mL, the solubility ([2]; organic solvent or mixture, solvent N-hexane, 3000 μL, not dissolved completely at 50° C.) was less than 3300 µg/mL and the solubility ([2]; organic solvent or mixture, solvent N-propanol, 3000 μL, not dissolved completely at 50° C.) was less than 3300 µg/mL. It also gave a solubility ([2]; organic solvent or mixture, solvent Tetrahydrofuran, 3000 μL, not dissolved completely at 50° C.) of less than 3300 µg/mL and a solubility ([2]; solvent Water, 200 μL) greater than 50000 µg/mL.

With `O=C(O)[C@H]1C2CCC(CC2)[C@@H]1Nc1nc(-c2n[nH]c3ncc(F)cc23)nc(C2CC2)c1F` [crystal form IX] the “Stability of the crystal form” value [1] was “intermediate metastable crystal form”.

In the case of `O=C(O)[C@H]1C2CCC(CC2)[C@@H]1Nc1nc(-c2n[nH]c3ncc(F)cc23)nc(C2CC2)c1F` [Crystal Form II], the “Results on Day 14 (XRPD)” value ([3]; High humidity (25° C., 92.5% RH)) was “No changes” and the “Results on Day 14 (XRPD)” value ([3]; High temperature (60° C.)) was “No changes”.

For `O=C(O)[C@H]1C2CCC(CC2)[C@@H]1Nc1nc(-c2n[nH]c3ncc(F)cc23)nc(C2CC2)c1F` [Crystal Form I], the “Results on Day 14 (XRPD)” value ([3]; Acceleration conditions (40° C., 75% RH)) was “No changes” and the “Results on Day 14 (XRPD)” value ([3]; Light radiation (25° C., 4500 Lux)) was “No changes”.

For `O=C(O)[C@H]1C2CCC(CC2)[C@@H]1Nc1nc(-c2n[nH]c3ncc(F)cc23)nc(C2CC2)c1F` [crystal form V], the “Stability of the crystal form” value [1] was “high stability”.

In the case of `O=C(O)[C@H]1C2CCC(CC2)[C@@H]1Nc1nc(-c2n[nH]c3ncc(F)cc23)nc(C2CC2)c1F` [crystal form IV], the “Crystal form change after DVS test (XRPD)” value [4] was “does not change”.

For `O=C(O)[C@H]1C2CCC(CC2)[C@@H]1Nc1nc(-c2n[nH]c3ncc(F)cc23)nc(C2CC2)c1F` [crystal form VIII], the “Stability of the crystal form” value [1] was “high stability”.

With `O=C(O)[C@H]1C2CCC(CC2)[C@@H]1Nc1nc(-c2n[nH]c3ncc(F)cc23)nc(C2CC2)c1F` [crystal form VI] the “Stability of the crystal form” value [1] was “unstable crystal form”.
